Experimental data as given in EP4049726A1, “IMIDAZO[1,2-A]PYRAZINES AS INHIBITORS OF HASPIN AND THERAPEUTIC USES THEREOF” (Fundación del Sector Público Estatal Centro Nacional de …, priority 2021, dated 2022).

Columns and labels:
HASPIN [1] = target: T1, HASPIN (Homo sapiens, UniProt Q8TF76); assay: HASPIN biochemical assay (ADP-Glo, HASPIN autophosphorylation); conditions: ATP 150 µM, 60 min at 30 °C
T1 sequence (Q8TF76 1-798): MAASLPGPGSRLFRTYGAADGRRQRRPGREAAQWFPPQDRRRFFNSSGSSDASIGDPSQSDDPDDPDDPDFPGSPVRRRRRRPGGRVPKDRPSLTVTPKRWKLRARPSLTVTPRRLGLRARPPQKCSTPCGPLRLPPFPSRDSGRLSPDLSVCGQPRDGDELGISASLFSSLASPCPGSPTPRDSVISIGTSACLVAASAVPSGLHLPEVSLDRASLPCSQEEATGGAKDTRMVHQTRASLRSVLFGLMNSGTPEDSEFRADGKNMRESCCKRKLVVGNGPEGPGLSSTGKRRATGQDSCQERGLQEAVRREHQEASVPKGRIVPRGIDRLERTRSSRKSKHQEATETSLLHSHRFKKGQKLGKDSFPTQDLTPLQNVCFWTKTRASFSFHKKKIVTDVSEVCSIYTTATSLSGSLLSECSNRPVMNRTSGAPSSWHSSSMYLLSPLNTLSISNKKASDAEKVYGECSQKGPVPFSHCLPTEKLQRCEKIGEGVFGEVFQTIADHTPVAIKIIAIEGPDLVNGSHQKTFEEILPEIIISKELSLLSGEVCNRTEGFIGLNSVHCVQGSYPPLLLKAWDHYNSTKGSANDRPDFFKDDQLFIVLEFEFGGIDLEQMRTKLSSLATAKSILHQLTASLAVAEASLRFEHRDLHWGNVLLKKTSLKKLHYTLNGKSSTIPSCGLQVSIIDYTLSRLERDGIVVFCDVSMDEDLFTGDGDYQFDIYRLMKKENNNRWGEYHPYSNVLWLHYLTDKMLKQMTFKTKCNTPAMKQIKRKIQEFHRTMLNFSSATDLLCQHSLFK
Procedure: HASPIN biochemical Assay: The biochemical assay to measure HASPIN activity relies on the ADP-Glo™ assay kit (Promega) that determines the amount of ADP as direct product of the kinase enzyme activity. Assay conditions were as indicated by the kit manufacturers with the following adaptations for the kinase activity step: Kinase assay buffer and assay volume (15 mM HEPES pH 7.5, 20 mM NaCl, 1 mM EGTA, 0.02% TWEEN 20, 10 mM MgCl2, 0.1 mg/mL BGG)/25 µL assay volume). Incubation time and temperature: 60 min at 30 °C. HASPIN final concentration: 0.9 µg/mL. ATP final concentration: 150 µM. HASPIN autophosphorylation was measured. Assays were performed in 384-well plates. The final outcome of the coupled reactions provided by the kit is the release of […] and has been measured with a multilabel HTS counter Victor V / Envision. Values were normalized against the control activity included (100% HASPIN activity, without compound). Values were plotted against the inhibitor concentration and fit to a sigmoid dose-response curve using Activity base by IDBS software.

HASPIN [2] = target: T1, HASPIN; assay: Cellular HASPIN inhibition assay (phosphorylation of H3T3, western blot); type: cell-based; conditions: MV4:11 cells, 8 hours of treatment, read-out: pH3T3 EC50
Procedure: Cellular HASPIN Inhibition Assay (phosphorylation of H3T3): Compounds can be screened for their ability to inhibit intracellular HASPIN using a western blot assay to detect phosphorylation of the HASPIN substrate H3T3 in synchronized cells. MV4:11 cells are plated at 400000 cells per well in 6-well plates in RPMI media supplemented with 10% foetal bovine serum, Penicillin/Streptomycin solution diluted 1: 100, and fungizone, and allowed to adhere overnight at 37 °C in 5% CO2. Then, compounds are added to the cell media from a final concentration of 10 µM in 10-fold serial dilutions and the cells are incubated at 37 °C in 5% CO2. After 8 hours of treatment with the compounds, the cells are washed in PBS, lysed adding 100 µl of protein lysis buffer (62.5 mM Tris pH 6.8 al 6.25%, 2% SDS y 10% glycerol) incubation 10 minutes at room temperature and heating at 95 °C 10 min. The protein content of the lysates is determined by DC protein assay. The proteins are resolved by SDS-PAGE and transferred to nitrocellulose membrane. The membranes are incubated overnight at 4 °C with antibodies specific for H3, phosphothreonine-3 H3 they are washed and then incubated with IRDye800 conjugated antimouse and Alexa Fluor 680 goat anti-rabbit IgG secondary antibodies. The bands are visualized and quantified using an Odyssey infrared imaging system. The percentage of H3 phosphorylation is finally plotted against concentration for each compound and EC50s for intracellular HASPIN inhibition are calculated using a software platform for screening data management.

| SMILES | IC50 (HASPIN [1]) | EC50 (HASPIN [2]) |
| --- | --- | --- |
| NC(=O)c1cn2cc(-c3ccnc(Cl)c3)nc(NCC3CCNCC3)c2n1 [Compound 3, 6-(2-Chloro-pyridin-4-yl)-8-[(piperidin-4-ylmethyl)-amino]-imidazo[1,2-a]pyrazine-2-carboxylic acid amide] | 45.2 nM | < 50 nM |
| CNC(=O)c1cn2cc(-c3ccncc3)nc(NCC3CCNCC3)c2n1 [Compound 4, 8-[(Piperidin-4-ylmethyl)-amino]-6-pyridin-4-yl-imidazo[1,2-a]pyrazine-2-carboxylic acid methylamide] | 20.4 nM | < 50 nM |
| N#CC1(CNc2nc(-c3ccncc3)cn3cc(C(N)=O)nc23)CCNCC1 [Compound 8, 8-[(4-Cyano-piperidin-4-ylmethyl)-amino]-6-pyridin-4-yl-imidazo[1,2-a]pyrazine-2-carboxylic acid amide] | 19.7 nM | < 50 nM |
| NC(=O)c1cn2cc(-c3ccncc3F)nc(NCC3CCNCC3)c2n1 [Compound 27, 6-(3-Fluoro-pyridin-4-yl)-8-[(piperidin-4-ylmethyl)-amino]-imidazo[1,2-a]pyrazine-2-carboxylic acid amide] | 9.42 nM | < 50 nM |
| CNC(=O)c1cn2cc(-c3ccncc3F)nc(NCC3(C#N)CCNCC3)c2n1 [Compound 32, 8-[(4-Cyano-piperidin-4-ylmethyl)-amino]-6-(3-fluoro-pyridin-4-yl)-imidazo[1,2-a]pyrazine-2-carboxylic acid methylamide] | 7.63 nM | < 50 nM |
| NC(=O)c1cn2cc(-c3ccncc3F)nc(NCC3(F)CCNCC3)c2n1 [Compound 33, 8-[(4-Fluoro-piperidin-4-ylmethyl)-amino]-6-(3-fluoro-pyridin-4-yl)-imidazo[1,2-a]pyrazine-2-carboxylic acid amide] | 10.5 nM | < 50 nM |
| Cc1cc(-c2cn3cc(C(N)=O)nc3c(NCC3CCNCC3)n2)ccn1 [Compound 36, 6-(2-Methyl-pyridin-4-yl)-8-[(piperidin-4-ylmethyl)-amino]-imidazo[1,2-a]pyrazine-2-carboxylic acid amide] | 24.6 nM | < 50 nM |
